Results published in publication PMC9331678 (Molecules, 2022).

Experiment: 24 h therapeutic monitoring and noncompartmental pharmacokinetics in chronic lymphocytic leukemia patients receiving IBR
Settings: plasma; for mean DIB/IBR concentration ratio: three patients; for concentration at 0.5 h: 0.5 h postdose; for concentration at 1 h: 1 h postdose; for concentration at 2 h: 2 h postdose; for concentration at 4 h: 4 h postdose; for concentration at 23 h: 23 h postdose
[1] = Patient 1, 420 mg IBR per day, steady state
[2] = Patient 2, 420 mg IBR per day, steady state
[3] = Patient 3, 280 mg IBR per day, steady state
[4] = human, oral, 280 mg/day, Conc., subj=3 (280 mg IBR per day)
[5] = human, oral, 420 mg, Conc., subj=1 (420 mg IBR per day)
[6] = human, oral, 420 mg, Conc., subj=2 (420 mg IBR per day)

AUC0–24 [1]: 2347 nmol·L/h
AUMC0–24 [1]: 16,593 nmol × L
AUC0–24 [2]: 2528 nmol·L/h
AUMC0–24 [2]: 11,626 nmol × L
AUC0–24 [3]: 1800 nmol·L/h
AUMC0–24 [3]: 8172 nmol·L
mean DIB/IBR concentration ratio (at 4 h postdose): 2.36 ± 1.69
mean DIB/IBR concentration ratio (at the trough (23–24 h)): 3.34–3.44
mean DIB/IBR concentration ratio (between 0.5–2 h postdose): 0.96–1.19
AUC (human, oral, 280 mg, AUCALL AUC All, subj=3 (280 mg IBR per day), steady state): 1.8 µM·h
AUC(0-inf) (human, oral, 280 mg, AUCIFO AUC Infinity Obs, subj=3 (280 mg IBR per day), steady state): 1.88 µM·h
AUC(0-inf) (human, oral, 280 mg, AUCIFP AUC Infinity Pred, subj=3 (280 mg IBR per day), steady state): 1.88 µM·h
AUC (human, oral, 280 mg, AUCLST AUC to Last Nonzero Conc, subj=3 (280 mg IBR per day), steady state): 1.8 µM·h
Cmax (human, oral, 280 mg, CMAX Max Conc, subj=3 (280 mg IBR per day), steady state): 217 nM
k el (human, oral, 280 mg, LAMZ Lambda z, subj=3 (280 mg IBR per day), steady state): 3.39e-05 s⁻¹
half-life (human, oral, 280 mg, LAMZHL Half-Life Lambda z, subj=3 (280 mg IBR per day), steady state): 5.68 h
MRT last (human, oral, 280 mg, MRT0–24, Patient 3, 280 mg IBR per day, steady state): 4.54 h
MRT (human, oral, 280 mg, MRTEVIFO MRT Extravasc Infinity Obs, subj=3 (280 mg IBR per day), steady state): 5.75 h
MRT (human, oral, 280 mg, MRTEVIFP MRT Extravasc Infinity Pred, subj=3 (280 mg IBR per day), steady state): 5.72 h
MRT (human, oral, 280 mg, MRTEVLST MRT Extravasc to Last Nonzero Conc, subj=3 (280 mg IBR per day), steady state): 4.54 h
Cmax (human, oral, 280 mg, cmax, Patient 3, 280 mg IBR per day, steady state): 217 nM
k el (human, oral, 280 mg, ke, Patient 3, 280 mg IBR per day, steady state): 3.39e-05 s⁻¹
half-life (human, oral, 280 mg, t1/2, Patient 3, 280 mg IBR per day, steady state): 5.68 h
Tmax (human, oral, 280 mg, tmax, Patient 3, 280 mg IBR per day, steady state): 2 h
concentration at 24 h (human, oral, 280 mg/day, CLST Last Nonzero Conc, subj=3 (280 mg IBR per day), 24 h): 10.1 nM
concentration at 24 h (human, oral, 280 mg/day, CLSTP Last Nonzero Conc Pred, subj=3 (280 mg IBR per day), 24 h): 9.84 nM
concentration at 0.5 h [4]: 50.4 nM
concentration at 1 h [4]: 195 nM
concentration at 2 h [4]: 217 nM
concentration at 4 h [4]: 113 nM
concentration at 23 h [4]: 10.8 nM
concentration at 24 h (human, oral, 280 mg/day, Conc., subj=3 (280 mg IBR per day), 24 h postdose): 10.1 nM
AUC (human, oral, 420 mg, AUCALL AUC All, subj=1 (420 mg IBR per day), steady state): 2.35 µM·h
AUC (human, oral, 420 mg, AUCALL AUC All, subj=2 (420 mg IBR per day), steady state): 2.53 µM·h
AUC(0-inf) (human, oral, 420 mg, AUCIFO AUC Infinity Obs, subj=1 (420 mg IBR per day), steady state): 2.85 µM·h
AUC(0-inf) (human, oral, 420 mg, AUCIFO AUC Infinity Obs, subj=2 (420 mg IBR per day), steady state): 2.63 µM·h
AUC(0-inf) (human, oral, 420 mg, AUCIFP AUC Infinity Pred, subj=1 (420 mg IBR per day), steady state): 2.88 µM·h
AUC(0-inf) (human, oral, 420 mg, AUCIFP AUC Infinity Pred, subj=2 (420 mg IBR per day), steady state): 2.63 µM·h
AUC (human, oral, 420 mg, AUCLST AUC to Last Nonzero Conc, subj=1 (420 mg IBR per day), steady state): 2.35 µM·h
AUC (human, oral, 420 mg, AUCLST AUC to Last Nonzero Conc, subj=2 (420 mg IBR per day), steady state): 2.53 µM·h
concentration at 24 h (human, oral, 420 mg, CLST Last Nonzero Conc, subj=1 (420 mg IBR per day), 24 h): 34.6 nM
concentration at 24 h (human, oral, 420 mg, CLST Last Nonzero Conc, subj=2 (420 mg IBR per day), 24 h): 13.2 nM
concentration at 24 h (human, oral, 420 mg, CLSTP Last Nonzero Conc Pred, subj=1 (420 mg IBR per day), 24 h): 36.5 nM
concentration at 24 h (human, oral, 420 mg, CLSTP Last Nonzero Conc Pred, subj=2 (420 mg IBR per day), 24 h): 13 nM
Cmax (human, oral, 420 mg, CMAX Max Conc, subj=1 (420 mg IBR per day), steady state): 185 nM
Cmax (human, oral, 420 mg, CMAX Max Conc, subj=2 (420 mg IBR per day), steady state): 254 nM
concentration at 0.5 h [5]: 53.4 nM
concentration at 1 h [5]: 139 nM
concentration at 2 h [5]: 185 nM
concentration at 4 h [5]: 143 nM
concentration at 23 h [5]: 41.3 nM
concentration at 24 h (human, oral, 420 mg, Conc., subj=1 (420 mg IBR per day), 24 h postdose): 34.6 nM
concentration at 0.5 h [6]: 71.5 nM
concentration at 1 h [6]: 254 nM
Compound: Nc1ncnc2c1c(-c1ccc(Oc3ccccc3)cc1)nn2[C@@H]1CCCN(C(=O)C(O)CO)C1 (stereo partly drawn) [Dihydrodiol Ibrutinib, 1-[(3R)-3-[4-amino-3-(4-phenoxyphenyl)pyrazolo[3,4-d]pyrimidin-1-yl]piperidin-1-yl]-2,3-dihydroxypropan-1-one]
